Data published in the supplement of paper PMC10307832.

How the values were obtained:
Assay in all cases: relative viability (nuclei count vs DMSO), 5 days (fraction); higher = more cells survive
[1] = compound: CCC1=CN=CN=C1N2CCN(CC2)CC3=NC4=C(N3)C=C(C=C4)C(F)(F)F + CC1(C)CCC(c2ccc(Cl)cc2)=C(CN2CCN(c3ccc(C(=O)NS(=O)(=O)c4ccc(N[C@H](CCN5CCOCC5)CSc5ccccc5)c(S(=O)(=O)C(F)(F)F)c4)cc3)CC2)C1 [Navitoclax] (partner 0.5 µM)
Method in brief: (§1)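 After 5 days of treatment, lung cancer cells in 1536-well plates were fixed and stained in a single step (final 0.05% Triton X-100, 1% formaldehyde, 1 ug/ml Hoechst) and their nuclei counted on 4× images. Treatment had been applied by pin tool the day after seeding as one drug alone or as a fixed anchor-drug dose with five library-drug doses (not always all listed) in √10 steps. Relative viability is the nuclei count of treated wells divided by that of vehicle wells, and values are medians of duplicate plates.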

[2] = compound: CCn1c(-c2nonc2N)nc2cnc(Oc3cccc(NC(=O)c4ccc(OCCN5CCOCC5)cc4)c3)cc21 + CCNC(=O)c1noc(-c2cc(C(C)C)c(O)cc2O)c1-c1ccc(CN2CCOCC2)cc1 [Luminespib] (partner 0.01 µM)
Method in brief: as §1

[3] = compound: CCn1c(-c2nonc2N)nc2cnc(Oc3cccc(NC(=O)c4ccc(OCCN5CCOCC5)cc4)c3)cc21 + CS(=O)(=O)N1CCN(Cc2cc3nc(-c4cccc5[nH]ncc45)nc(N4CCOCC4)c3s2)CC1 [Pictilisib] (partner 1 µM)
Method in brief: as §1

Cell Line | relative viability ([1]; first compound 0.04 µM) | relative viability ([1]; first compound 0.1265 µM) | relative viability ([1]; first compound 0.4 µM) | relative viability ([1]; first compound 1.265 µM) | relative viability ([1]; first compound 4 µM) | relative viability ([2]; first compound 0.04 µM) | relative viability ([2]; first compound 0.1265 µM) | relative viability ([2]; first compound 0.4 µM) | relative viability ([2]; first compound 1.265 µM) | relative viability ([2]; first compound 4 µM) | relative viability ([3]; first compound 0.04 µM) | relative viability ([3]; first compound 0.1265 µM) | relative viability ([3]; first compound 1.265 µM) | relative viability ([3]; first compound 4 µM) | relative viability ([3]; first compound 0.4 µM)
LCLC-97TM1 | 0.411 | 0.384 | 0.396 | 0.489 | 0.396 | 0.923 | 0.728 | 0.664 | 0.882 | 0.856 | 0.261 | 0.363 | 0.351 | 0.236 | –
LCLC-103H | – | – | – | – | – | 1.08 | 1.02 | 1.1 | 0.721 | 0.779 | 0.764 | 0.596 | 0.455 | 0.576 | 0.435
LK-2 | 0.773 | 0.801 | 0.714 | 0.688 | 0.761 | 0.216 | 0.147 | 0.169 | 0.202 | 0.244 | 0.711 | 0.777 | 0.255 | 0.392 | 0.615
LOU-NH91 | 0.626 | 0.692 | 0.708 | 0.583 | 0.752 | 0.367 | 0.328 | 0.331 | 0.271 | 0.248 | 0.61 | 0.613 | 0.475 | 0.495 | 0.484
LU99A | 0.846 | 0.825 | 0.864 | 0.709 | 0.657 | 0.264 | 0.221 | 0.286 | 0.26 | 0.249 | 0.392 | 0.322 | 0.317 | 0.214 | 0.192
LXF-289 | 1.08 | 0.912 | 0.948 | 0.885 | 0.896 | 0.791 | 0.638 | 0.798 | 0.701 | 0.654 | 0.923 | 0.761 | 0.56 | 0.516 | 0.539
NCI-H23 | 0.845 | 0.903 | 0.783 | 0.749 | 1.04 | 0.225 | 0.242 | 0.217 | 0.21 | 0.215 | 0.721 | 0.613 | 0.433 | 0.343 | –
NCI-H322M | 1.26 | 1.1 | 1.13 | 1.29 | 1.2 | 1.25 | 1.16 | 0.931 | 0.434 | 0.587 | 0.579 | 0.541 | 0.693 | 0.591 | 0.581
NCI-H358 | – | – | – | – | – | 0.667 | 0.302 | – | 0.535 | 0.198 | 0.339 | 0.401 | 0.384 | 0.216 | 0.316
NCI-H441 | 0.448 | 0.523 | 0.57 | 0.573 | 0.677 | 0.333 | 0.342 | – | 0.326 | 0.416 | 0.582 | 0.541 | 0.386 | 0.376 | 0.438
NCI-H460 | 1.25 | 1.01 | 1.01 | 1.09 | 1.11 | 0.0313 | 0.0331 | 0.0317 | 0.0272 | 0.0222 | 0.462 | 0.404 | 0.122 | 0.182 | 0.207
NCI-H520 | 1.16 | 1.01 | 0.969 | 0.96 | 1.03 | 0.232 | 0.215 | 0.217 | 0.197 | 0.183 | 0.326 | 0.31 | 0.265 | 0.182 | 0.256
NCI-H522 | – | – | – | – | – | 1.04 | 1.27 | 0.853 | 0.797 | 0.767 | – | – | – | – | –
NCI-H596 | 1.01 | 0.899 | 0.933 | 0.944 | 1 | 1.28 | 1.1 | 1.01 | 0.979 | 0.97 | 0.399 | 0.416 | 0.359 | 0.389 | 0.37
NCI-H647 | 1.21 | 0.968 | – | – | 1.04 | 0.18 | 0.139 | 0.269 | 0.106 | 0.116 | 0.614 | 0.307 | 0.207 | 0.276 | 0.249
NCI-H650 | – | – | – | – | – | 0.959 | 0.741 | 0.424 | 0.242 | 0.296 | 1.09 | 0.809 | 0.484 | 0.542 | 0.594
NCI-H661 | – | – | – | – | – | 0.995 | 0.934 | 0.936 | 0.739 | 0.642 | 0.415 | 0.457 | 0.202 | 0.288 | 0.33
NCI-H727 | 0.487 | 0.501 | 0.357 | – | 0.35 | 0.418 | 0.264 | 0.352 | 0.379 | 0.413 | 0.613 | 0.741 | 0.487 | 0.345 | 0.604
NCI-H838 | 1.23 | 1.12 | 1.11 | 1.14 | 1.07 | 0.366 | 0.235 | 0.252 | 0.2 | 0.208 | 0.397 | 0.292 | 0.286 | 0.256 | 0.231
NCI-H1299 | 1.09 | 1.03 | 1.03 | 1.05 | 1.04 | – | – | – | – | – | 0.956 | 0.735 | 0.618 | 0.393 | 0.74
NCI-H1355 | 0.987 | 0.919 | 0.903 | 0.806 | 0.973 | 0.744 | 0.742 | 0.672 | 0.759 | 0.797 | 0.446 | 0.418 | 0.32 | 0.277 | 0.338
NCI-H1395 | 1.16 | 1.14 | 1.11 | 0.949 | 1.12 | 0.674 | 0.849 | 0.538 | 0.384 | 0.449 | 0.795 | 0.508 | 0.384 | 0.536 | 0.491
NCI-H1563 | – | – | – | – | – | 1.23 | 0.514 | 0.482 | 0.466 | 0.48 | 0.629 | 0.678 | 0.66 | 0.569 | 0.638
NCI-H1623 | – | – | – | – | – | 0.527 | 0.555 | 0.509 | 0.49 | 0.706 | – | – | – | – | –
NCI-H1703 | 0.901 | 1.13 | 1.1 | 0.85 | 1.08 | – | – | – | – | – | 0.242 | 0.312 | 0.215 | 0.188 | 0.206
NCI-H2342 | – | – | – | – | – | 0.763 | 0.847 | 0.715 | 0.665 | 0.785 | – | – | – | – | –
SW 900 | – | – | – | – | – | 0.178 | 0.197 | 0.178 | 0.154 | 0.174 | – | – | – | – | –
